A word on the Ki: it is a measure of affinity in units of concentration, obtained from inhibition or displacement.

The target of one assay is T1, Human Recombinant Matriptase 2 (Homo sapiens, UniProt Q8IU80).
T1 construct: made in house
T1 sequence (Q8IU80 1-811): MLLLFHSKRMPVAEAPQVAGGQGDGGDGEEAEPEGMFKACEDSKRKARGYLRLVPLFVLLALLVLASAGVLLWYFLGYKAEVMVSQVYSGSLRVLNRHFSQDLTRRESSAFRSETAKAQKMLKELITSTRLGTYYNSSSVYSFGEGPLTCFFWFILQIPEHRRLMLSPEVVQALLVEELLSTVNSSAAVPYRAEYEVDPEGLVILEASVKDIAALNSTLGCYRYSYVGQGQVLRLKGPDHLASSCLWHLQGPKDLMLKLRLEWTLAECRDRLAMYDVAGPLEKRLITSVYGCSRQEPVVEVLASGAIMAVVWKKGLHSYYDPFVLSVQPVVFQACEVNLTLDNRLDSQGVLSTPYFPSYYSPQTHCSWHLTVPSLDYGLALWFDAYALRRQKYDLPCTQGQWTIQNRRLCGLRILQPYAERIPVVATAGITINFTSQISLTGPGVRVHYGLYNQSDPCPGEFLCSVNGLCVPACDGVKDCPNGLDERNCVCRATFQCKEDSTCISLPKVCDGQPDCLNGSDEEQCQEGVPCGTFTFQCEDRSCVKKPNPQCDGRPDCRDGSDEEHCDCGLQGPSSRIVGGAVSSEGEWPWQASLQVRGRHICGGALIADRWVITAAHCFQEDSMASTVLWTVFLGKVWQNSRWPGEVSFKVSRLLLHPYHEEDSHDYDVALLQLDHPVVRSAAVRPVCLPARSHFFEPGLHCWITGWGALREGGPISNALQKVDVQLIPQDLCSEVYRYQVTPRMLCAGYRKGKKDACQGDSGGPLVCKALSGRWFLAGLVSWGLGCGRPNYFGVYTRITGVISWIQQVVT
The experiment in a line: Matriptase 2 inhibition, fluorescence based assay (Method I). In kind it is biochemical. The conditions noted are these: Table A; Ki of Matriptase-2; read-out: Mat-2 Ki. The essentials: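 In-house recombinant enzyme (3.5 nM), preincubated 30 min with compound, then Boc-Gln-Ala-Arg-AMC substrate (62 μM) in 50 mM Tris pH 7.5, 150 mM NaCl, 0.01% gelatin, 1% DMSO, 25 °C. Fluorescence (Ex 360/Em 480 nm) read 60 min after substrate; IC50 from variable-slope sigmoidal fit of % inhibition.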
Regarding `CN1CCC(C)(COC(=O)c2cc3ccc(CN)nc3n2Cc2cc(NS(=O)(=O)Cc3ccccc3)cc3ccccc23)CC1` [Compound 10, (1,4-dimethylpiperidin-4-yl)methyl 6-(amino-methyl)-1-{[3-(phenyl-methanesulfonamido)-naphthalen-1-yl]meth-yl}-1H-pyrrolo[2,3-b]-pyridine-2-carboxylate], the Ki is no more than 100 nM.

Regarding `COCCN1CCC[C@H](COC(=O)c2cc3ccc(CN)nc3n2Cc2cc(NS(=O)(=O)Cc3ccccc3)cc3ccccc23)C1` (racemic) [Compound 144, rac-[(3R)-1-(2-methoxy-ethyl)piperidin-3-yl]-methyl 6-(aminometh-yl)-1-(phenylmethane-sulfonamido)naphthalen-1-yl]methyl}-1H-pyrrolo-[2,3-b]pyridine-2-car-boxylate], the Ki was no more than 100 nM.

As for `CN1CCC(CN(C)C(=O)c2cc3ccc(CN)nc3n2Cc2cc(NS(=O)(=O)Cc3ccccc3)cc3ccccc23)CC1` [Compound 26, 6-(aminomethyl)-N-methyl-N-[(1-methyl-piperidin-4-yl)methyl]-1-{[3-(phenylmethane-sulfonamido)naphthalen-1-yl]methyl}-1H-pyr-rolo[2,3-b]pyridine-2-carboxamide], the Ki is no more than 100 nM.

In the case of `CC(C)(C)n1cncc1CCOC(=O)c1cc2ccc(CN)nc2n1Cc1cc(NS(=O)(=O)Cc2ccccc2)cc2ccccc12` [Compound 104, 2-(1-tert-butyl-1H-imid-azol-5-yl)ethyl 6-(amino-methyl)-1-{[3-(phenyl-methanesulfonamido)-naphthalen-1-yl]methyl}-1H-pyrrolo[2,3-b]pyr-idine-2-carboxylate], the Ki fell in the range of 100 to 500 nM.

As to `NCc1ccc2cc(C(=O)OCC3CCN(C=O)CC3)n(Cc3cc(NS(=O)(=O)Cc4ccccc4)cc4ccccc34)c2n1` [Compound 59, (1-formylpiperidin-4-yl)-methyl 6-(aminomethyl)-1-{[3-(phenylmethane-sulfonamido)naphthalen-1-yl]methyl}-1H-pyr-rolo[2,3-b]pyridine-2-carboxylate], the Ki was no more than 100 nM.

For the compound `Cc1cccc(C)c1CS(=O)(=O)Nc1cc(Cn2c(C(=O)OCCN3CCN(C)CC3)cc3ccc(CN)nc32)c2ccccc2c1` [Compound 186], the Ki was no more than 100 nM.

In the case of `C[C@@H](CCOC(=O)c1cc2ccc(CN)nc2n1Cc1cc(NS(=O)(=O)Cc2ccccc2)cc2ccccc12)N1CCOCC1` (racemic) [Compound 143, rac-(3R)-3-(morpholin-4-yl)butyl 6-(aminometh-yl)-1-{[3-(phenylmeth-anesulfonamido)naph-thalen-1-yl]methyl}-1H-pyrrolo-[2,3-b]pyridine-2-carboxylate], the Ki was no more than 100 nM.

Take `Cc1cccc(C)c1CS(=O)(=O)Nc1cc(Cn2c(C(=O)OC[C@H]3COCCN3)cc3ccc(CN)nc32)c2ccccc2c1` [Compound 189, [(3R)-morpholin-3-yl]-methyl 6-(aminomethyl)-1-({3-[(2,6-dimethyl-phenyl)methanesulfon-amido]naphthalen-1-yl}-methyl)-1H-pyrrolo[2,3-b]pyridine-2-carboxylate]: the Ki was no more than 100 nM.

On to `NCc1ccc2cc(C(=O)OCCCCN3CCOCC3)n(Cc3cc(NS(=O)(=O)Cc4ccccc4)cc4ccccc34)c2n1` [Compound 7, 4-morpholinobutyl 6-(aminomethyl)-1-((3-((phenylmethyl)sulfonamido)naphthalen-1-yl)methyl)-1H-pyrrolo[2,3-b]pyridine-2-carboxylate], for which the Ki is no more than 100 nM.

On to `CNC(=O)c1cc2ccc(CN)nc2n1Cc1cc(NS(=O)(=O)CC[C@@H]2CCCN2)cc2ccccc12` [Compound 3], for which the Ki fell in the range of 100 to 500 nM.

With `NCc1ccc2cc(C(=O)OC[C@H]3COCCN3)n(Cc3cc(NS(=O)(=O)Cc4ccccc4)cc4ccccc34)c2n1` [Compound 22, [(3R)-morpholin-3-yl]-methyl 6-(aminomethyl)-1-{[3-(phenylmethane-sulfonamido)naphthalen-1-yl]methyl}-1H-pyr-rolo[2,3-b]pyridine-2-carboxylate], the Ki was no more than 100 nM.

On to `Cc1oc(=O)oc1COC(=O)c1cc2ccc(CN)nc2n1Cc1cc(NS(=O)(=O)Cc2ccccc2)cc2ccccc12` [Compound 88, (5-methyl-2-oxo-2H-1,3-dioxol-4-yl)methyl 6-(aminomethyl)-1-{[3-(phenylmethanesulfon-amido)naphthalen-1-yl]-methyl}-1H-pyrrolo[2,3-b]pyridine-2-carboxylate], for which the inhibition constant (Ki) fell in the range of 100 to 500 nM.

`NCc1ccc2cc(C(=O)OCCN3CCCC3)n(Cc3cc(NS(=O)(=O)Cc4ccccc4)cc4ccccc34)c2n1` [Compound 69, 2-(pyrrolidin-1-yl)ethyl 6-(aminomethyl)-1-{[3-(phenylmethanesulfon-amido)naphthalen-1-yl]-methyl}-1H-pyrrolo[2,3-b]pyridine-2-carboxylate]: the Ki is no more than 100 nM.

Take `CNCCOC(=O)c1cc2ccc(CN)nc2n1Cc1cc(NS(=O)(=O)Cc2cccs2)cc2ccccc12` [Compound 152, 2-(methylamino)ethyl 6-(aminomethyl)-1-({3-[(thiophen-2-yl)methane-sulfonamido]naphthalen-1-yl}methyl)-1H-pyr-rolo[2,3-b]pyridine-2-carboxylate]: the Ki was no more than 100 nM.

The same assay, now with this note: Table A; Ki of Matriptase-2 given as class symbols; read-out: Mat-2 Ki.
With `CC(=O)O[C@H](C)OC(=O)c1cc2ccc(CN)nc2n1Cc1cc(NS(=O)(=O)CC2CCNCC2)cc2ccccc12` (racemic) [Compound 263, 1-[6-(aminomethyl)-1-({3-[(piperidin-4-yl)-methanesulfonamido]-naphthlen-1-yl}methyl)-1H-pyrrolo[2,3-b]pyr-idine-2-carbonyloxy]-ethyl acetate], the Ki was 100 to 500 nM.

With `NCc1ccc2cc(C(=O)O)n(Cc3cc(NS(=O)(=O)C[C@H]4COCCN4)cc4ccccc34)c2n1` (racemic) [Compound 261, 6-(aminomethyl)-1-({3-[(morpholin-3-l)methane-sulfonamido]naphthalen-1-yl}methyl)-1H-pyr-rolo[2,3-b]pyridine-2-carboxylic acid], the Ki lay within 100 to 500 nM.

For the compound `NCc1ccc2cc(C(=O)O)n(Cc3cc(NS(=O)(=O)CCc4ccccc4)cc4ccccc34)c2n1` [Compound 230, 6-(aminomethyl)-1-{[3-(2-phenylethanesulfon-amido)naphthalen-1-yl]-methyl}-1H-pyrrolo[2,3-b]pyridine-2-carboxylic acid], the Ki was in the range of 100 to 500 nM.

For the compound `CN(C)CCCCS(=O)(=O)Nc1cc(Cn2c(C(=O)O)cc3ccc(CN)nc32)c2ccccc2c1` [Compound 219, 6-(aminomethyl)-1-({3-[4-(dimethylamino)-butanesulfonamido]naph-thalen-1-yl}methyl)-1H-pyrrolo[2,3-b]pyridine-2-carboxylic acid], the Ki is 100 to 500 nM.

In the case of `NCc1ccc2cc(C(=O)OCCO)n(Cc3cc(NS(=O)(=O)CC[C@@H]4CCCN4)cc4ccccc34)c2n1` [Compound 260, 2-hydroxyethyl 6-(aminomethyl)-1-[(3-{2-[(2S)-pyrrolidin-2-yl]-ethanesulfonamido}naph-thalen-1-yl)methyl]-1H-pyrrolo[2,3-b]pyridine-2-carboxylate], the Ki was 100 to 500 nM.

On to `NCc1ccc2cc(C(=O)O)n(Cc3cc(NS(=O)(=O)Cc4c(F)cccc4F)cc4ccccc34)c2n1` [Compound 246, 6-(aminomethyl)-1-({3-[(2,6-difluorophenyl)-methanesulfonamido]-naphthalen-1-yl}meth-yl)-1H-pyrrolo[2,3-b]-pyridine-2-carboxylic acid], for which the inhibition constant Ki was in the range of 100 to 500 nM.

For the compound `NCc1ccc2cc(CO)n(Cc3cc(NS(=O)(=O)CC4CCNCC4)cc4ccccc34)c2n1` [Compound 362], the Ki was 100 to 500 nM.

For `C[C@@H]1OCCC1S(=O)(=O)Nc1cc(Cn2c(C(=O)O)cc3ccc(CN)nc32)c2ccccc2c1` (stereo partly drawn) [Compound 272, 6-(aminomethyl)-1-({3-[(2S)-2-methyloxolane-3-sulfonamido]naph-thalen-1-yl}methyl)-1H-pyrrolo[2,3-b]pyridine-2-carboxylic acid], the Ki lay in the range of 500 to 3000 nM.

Regarding `CC(C)OC(=O)c1cc2ccc(CN)nc2n1Cc1cc(NS(=O)(=O)CC[C@@H]2CCCN2)cc2ccccc12` [Compound 270, propan-2-yl 6-(amino-methyl)-1-[(3-{2-[(2S)-pyrrolidin-2-yl]ethane-sulfonamido}naphthalen-1-yl)methyl]-1H-pyrrolo-[2,3-b]pyridine-2-car-boxylate], the Ki was in the range of 500 to 3000 nM.

Take `CC1(O)CCN(C(=O)Nc2cc(Cn3c(C(=O)O)cc4ccc(CN)nc43)c3ccccc3c2)CC1` [Compound 300]: the Ki was in the range of 500 to 3000 nM.

The same assay, now with this note: Table B; Human Recombinant Matriptase 2, 3.5 nM enzyme, 62 μM substrate, 30 mins preincubation; read-out: Mean Ki.
`CN1CCC(COC(=O)c2cc3ccc(CN)nc3n2Cc2cc(NS(=O)(=O)Cc3ccccc3)cs2)CC1` [Compound 2.45]: the Ki was greater than 3000 nM.

The values above are taken from patent US20240400553A1, “AMINE BASED MATRIPTASE 2 INHIBITORS AND USES THEREOF” (Disc Medicine, Inc., priority 2023, published 2024).
